Patent US10189809B2, “SGC stimulators” (Ironwood Pharmaceuticals, Inc., priority 2010, dated 2019)

Columns and labels:
[1] = molecular target: T1, Human soluble guanylate cyclase enzyme (hsGC) (Homo sapiens (Human), UniProt Q02108+Q02153); test: Purified human sGC enzyme activity assay; type: biochemical; details: 30 μM compound, without the addition of SNP
In short: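 Purified human sGC (5 ng) incubated 30 min at 37° C with compound at 10 or 30 μM final in pH 8.0 Tris with 300 μM GTP, 2 mM MgCl2, 2 mM DTT and 1 mM IBMX, then stopped with cold methanol. cGMP quantified against a standard curve. Specific activity (nmol cGMP/mg sGC/min) expressed as fold-change over DMSO control.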

Thoracic aortic rings = test: Alternative thoracic aortic rings assay (Example 19b; resting tension as 100% inhibition); parameters: species or system rat; details: Table 10A; for inhibition at 1 µM / inhibition at 3 µM / inhibition at 10 µM / EC50: Rattus norvegicus; for inhibition at 1 µM: read-out: Percent Relaxation at 1 μM; for inhibition at 3 µM: read-out: Percent Relaxation at 3 μM; for inhibition at 10 µM: read-out: Percent Relaxation at 10 μM; for EC50: read-out: Aortic Ring EC50; for Percent Relaxation at 1 μM: printed as number or words instead of code
In short: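 Aortic rings (~2 mm) from male Sprague-Dawley rats (275-299 g) held at 1.0 g resting tension in Krebs-Henseleit at 37 °C under 95% O2/5% CO2, then precontracted with 100 ng/mL phenylephrine. Compounds in DMSO added cumulatively; relaxation recorded by force transducer and EC50 taken from concentration-response curves.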

[2] = molecular target: T1, Human soluble guanylate cyclase enzyme (hsGC); test: Purified human sGC enzyme synergy assay in the presence of 1 μM sodium nitroprusside (SNP); type: biochemical; details: 30 μM compound, with the addition of SNP
In short: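 Purified human sGC (5 ng) incubated 30 min at 37 °C with compounds at 10 or 30 μM, 1 μM sodium nitroprusside, 300 μM GTP and 1 mM IBMX in Tris pH 8.0 with MgCl2/DTT. cGMP quantified against a standard curve, and specific activity expressed as fold-change over DMSO control.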

[3] = molecular target: soluble guanylate cyclase (sGC) (Homo sapiens (Human), UniProt Q02108+Q02153); test: sGC-HEK-cGMP assay run with SNP incubation (HEK WC assay); type: cell-based; details: for Emax at 10 µM: read-out: HEK WC Assay (% Emax at 10 μM/with 10 uM SNP); for Emax at 30 µM: read-out: HEK WC Assay (% Emax at 30 μM/with 10 uM SNP)
soluble guanylate cyclase (sGC), sequence (Q02153 whole entry): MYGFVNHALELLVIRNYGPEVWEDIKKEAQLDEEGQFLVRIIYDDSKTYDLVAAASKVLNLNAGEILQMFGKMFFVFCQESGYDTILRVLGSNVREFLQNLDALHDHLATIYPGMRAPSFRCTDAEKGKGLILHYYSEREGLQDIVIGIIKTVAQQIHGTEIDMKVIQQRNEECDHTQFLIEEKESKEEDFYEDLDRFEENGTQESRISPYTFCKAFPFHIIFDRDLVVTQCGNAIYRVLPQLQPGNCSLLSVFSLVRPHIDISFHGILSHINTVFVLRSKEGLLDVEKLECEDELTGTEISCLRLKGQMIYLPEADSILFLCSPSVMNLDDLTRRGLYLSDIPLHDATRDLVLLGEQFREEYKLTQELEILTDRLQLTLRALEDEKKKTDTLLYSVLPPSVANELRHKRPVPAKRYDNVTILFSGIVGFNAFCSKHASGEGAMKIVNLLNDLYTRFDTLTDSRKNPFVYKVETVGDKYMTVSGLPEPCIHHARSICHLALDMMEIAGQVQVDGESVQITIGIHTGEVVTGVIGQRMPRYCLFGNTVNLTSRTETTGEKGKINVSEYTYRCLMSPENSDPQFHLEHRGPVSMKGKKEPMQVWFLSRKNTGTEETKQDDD
soluble guanylate cyclase (sGC), sequence (Q02108 whole entry): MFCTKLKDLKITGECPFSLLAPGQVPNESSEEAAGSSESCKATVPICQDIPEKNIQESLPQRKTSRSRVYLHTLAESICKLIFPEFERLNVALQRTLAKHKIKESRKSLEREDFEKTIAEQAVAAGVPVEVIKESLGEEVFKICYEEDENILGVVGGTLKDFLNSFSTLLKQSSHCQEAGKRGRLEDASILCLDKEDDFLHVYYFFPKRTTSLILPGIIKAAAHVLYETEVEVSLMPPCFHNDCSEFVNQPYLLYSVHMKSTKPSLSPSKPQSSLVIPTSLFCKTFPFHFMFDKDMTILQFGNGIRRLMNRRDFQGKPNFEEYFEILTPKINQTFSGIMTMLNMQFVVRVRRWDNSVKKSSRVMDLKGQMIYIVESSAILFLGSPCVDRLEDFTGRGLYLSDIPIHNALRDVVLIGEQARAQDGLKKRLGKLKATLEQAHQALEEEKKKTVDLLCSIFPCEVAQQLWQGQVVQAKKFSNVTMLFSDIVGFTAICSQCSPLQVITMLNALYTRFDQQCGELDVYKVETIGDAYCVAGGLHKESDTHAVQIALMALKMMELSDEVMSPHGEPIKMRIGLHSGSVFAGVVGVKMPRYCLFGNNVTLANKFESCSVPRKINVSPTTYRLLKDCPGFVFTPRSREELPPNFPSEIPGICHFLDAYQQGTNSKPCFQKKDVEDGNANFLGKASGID
In short: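 HEK293 cells with endogenous sGC were pretreated with 0.5 mM IBMX for 15 min at 37 °C, then exposed to test compound plus sodium nitroprusside for 10 min at 37 °C.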

T1 sequence (Q02153 whole entry): as the sequence (Q02153 whole entry) above
T1 sequence (Q02108 whole entry): as the sequence (Q02108 whole entry) above

SMILES | sGC Enzyme (fold increase at 30 μM) [1] | EC50 (Thoracic aortic rings) [µM] | sGC Enzyme (fold increase at 30 μM with SNP) [2] | Emax at 10 µM [3] [%] | Emax at 30 µM [3] [%] | inhibition at 1 µM (Thoracic aortic rings) [%] | inhibition at 3 µM (Thoracic aortic rings; 3 μM) [%] | inhibition at 10 µM (Thoracic aortic rings) [%] | Percent Relaxation at 1 μM (Thoracic aortic rings) | Percent Relaxation at 3 μM (Thoracic aortic rings; 3 μM, printed as words instead of code)
Nc1ccnc(-c2cc(-c3cscn3)n(Cc3ccccc3F)n2)n1 [Compound I-92] | B (B = 2 to <5 fold increase) | < 2 | D (D = 10 to <30 fold increase) | 20 to 40 | 20 to 40 | 60 to 80 | 80 to 100 |  |  | 
Nc1ccnc(-c2cc(-c3ncco3)n(Cc3ccccc3F)n2)n1 [Compound I-87] | D (D = 10 to <30 fold increase) | < 2 | D (D = 10 to <30 fold increase) | 60 to 80 | 100 to 120 | 60 to 80 | 80 to 100 | 100 to 120 |  | 
Nc1nc(-c2cc(-c3ccon3)n(Cc3ccccc3F)n2)ncc1-c1ccccc1 [Compound I-122] | C (C = 5 to <10 fold increase) |  | D (D = 10 to <30 fold increase) | 20 to 40 | 60 to 80 |  |  |  |  | 
CC(C)(O)c1cnc(-c2cc(-c3ccon3)n(Cc3ccccc3F)n2)nc1O [Compound I-133] | A (A = no increase to <2 fold increase) |  | B (B = 2 to <5 fold increase) | 20 to 40 | 40 to 60 |  |  |  |  | 
Nc1nc(-c2cc(-c3ccon3)n(Cc3ccccc3F)n2)ncc1C(F)(F)F [Compound I-113] | A (A = no increase to <2 fold increase) |  | C (C = 5 to <10 fold increase) | 20 to 40 | 40 to 60 |  |  |  |  | 
CC(C)(C)c1cnc(-c2cc(-c3ccon3)n(Cc3ccccc3F)n2)nc1N [Compound I-114] | B (B = 2 to <5 fold increase) |  | D (D = 10 to <30 fold increase) | 40 to 60 | 40 to 60 |  |  |  |  | 

Further lines, with some results ahead:

sGC Enzyme (fold increase at 30 μM) [1] | EC50 (Thoracic aortic rings) [µM] | sGC Enzyme (fold increase at 30 μM with SNP) [2] | Emax at 10 µM [3] [%] | Emax at 30 µM [3] [%] | SMILES | inhibition at 1 µM (Thoracic aortic rings) [%] | inhibition at 3 µM (Thoracic aortic rings; 3 μM) [%] | inhibition at 10 µM (Thoracic aortic rings) [%] | Percent Relaxation at 1 μM (Thoracic aortic rings) | Percent Relaxation at 3 μM (Thoracic aortic rings; 3 μM, printed as words instead of code)
D (D = 10 to <30 fold increase) | 4 to 8 | C (C = 5 to <10 fold increase) |  |  | COC(=O)Nc1c(N)nc(-c2cc(-c3ccccc3)n(Cc3ccccc3F)n2)nc1N [Compound I-83] | 10 to 20 | 20 to 40 | 60 to 80 |  | 
C (C = 5 to <10 fold increase) |  | D (D = 10 to <30 fold increase) | 10 to 20 | 10 to 20 | COC(=O)Nc1c(N)nc(-c2cc(-c3ccsc3)n(Cc3ccccc3F)n2)nc1N [Compound I-71] |  | 10 to 20 | 60 to 80 | No relaxation | 
C (C = 5 to <10 fold increase) | 4 to 8 | C (C = 5 to <10 fold increase) | 10 to 20 | 10 to 20 | Nc1ccnc(-c2cc(-c3ccccc3)n(Cc3ccccc3F)n2)n1 [Compound I-82] | 10 to 20 | 20 to 40 | 80 to 100 |  | 
C (C = 5 to <10 fold increase) | 8 to 12 | B (B = 2 to <5 fold increase) |  |  | COC(=O)N(C)c1c(N)nc(-c2cc(-c3ccccc3)n(Cc3ccccc3F)n2)nc1N [Compound I-84] |  |  | 20 to 40 | no relaxation | no relaxation
